In data set [1] the test system is HCT-116 colon carcinoma cells xenografted in immunoincompetent mice. To be noted: for Normalised tumour weight: mean of n = 10.
Data set [2] deals with human recombinant SIRT1 (Homo sapiens, UniProt Q96EB6). In words: SIRT activity assay, SIRT1. It counts as biochemical. As to the method:
FIG. 13A: % of SIRT1 and SIRT2 activity with controls, sodium suramine, a sirtuin inhibitor, and resveratrol a SIRT1 activator, and with UVI5008 at concentrations of 50 μM and 5 μM.
The SIRT activity assay was performed using the human recombinant SIRT1 and SIRT2. SIRT1 (1 U/well) or SIRT2 (5 U/well), respectively, were incubated (37° C. for 1 h) with the SIRT1/2 substrate (corresponding to a p53 acetylated peptide) in the presence of NAD^+ and various concentrations of tested compounds (sirtuins activators or inhibitors). Activity was measured as fluorescence intensity. As internal controls, sodium suramin, a sirtuin inhibitor, and resveratrol, a SIRT1 activator, have been included. The fluorescence was measured on a fluorometric reader (Inphinite 200 TECAN) with excitation set at 360 nm and emission detection set at 460 nm

In data set [3] the test system is breast cancer cells (ZR75.1). In words: Anti-proliferative and apoptogenic action in breast cancer cells. In kind it is cell-based. The settings on record: data not shown.
For data set [4], the system named is histone H3. Nature of the data set: Histone H3 acetylation and K9 H3 methylation levels in U937 cells. In kind it is cell-based, human. To be noted: U937, 6 and 16 hrs. As to the method:
(§1) FIG. 1: a) Cell cycle analysis of U937 cells treated for 30 hrs with the indicated compounds used at 1 and 5 μM; b) Caspase 3 apoptotic assay of the indicated compounds after 24 hrs of treatment in the U937 cells; c) Tubulin acetylation and p21 expression levels at 6 and 16 hrs after treatment with the indicated compounds; total tubulin expression levels are used for equal loading; d) Histone H3 acetylation and K9 H3 methylation expression levels at 6 and 16 hrs after treatment with the indicated compounds; total tubulin expression levels are used for equal loading; e) K9, K14, K18 histone H3 acetylation expression levels at 6 and 16 hrs after treatment with the indicated compounds; total ERKs expression levels are used for equal loading; f) HDAC1 enzymatic assay: IP-HDAC1 is incubated with the indicated inhibitors for 24 Hrs; activity is measured as ^3H-acetyl release; g) HDAC4 enzymatic assay: IP-HDAC4 is incubated with the indicated inhibitors for 24 hrs; activity is measured as ^3H-acetyl release.
For the determination of p21^WAF1/CIP1 and p16^INK4 100 μg of total protein extracts were separated on a 15% polyacrylammide gels and blotted. Western blots were shown for p21 (Transduction Laboratories, dilution 1:500), p16 (Santa Cruz) and total ERKs (Santa Cruz) were used to normalise for equal loading. For alpha-tubulin acetylation 25 μg of total protein extracts were separated on a 10% polyacrylamide gels and blotted. Western blots were shown for acetylated alpha-tubulin (Sigma, dilution 1:500) and total ERKs (Santa Cruz) or total tubulin (Sigma) were used to normalise for equal loading.

Data set [5] concerns ex vivo AML patient blasts. In words: Cell cycle and apoptosis in ex vivo AML patient blasts. It counts as cell-based, human. As to the method: FIG. 4: a) Cell cycle analyses and apoptosis carried out in ex vivo samples from AML patients identified with numbers; b) Cell cycle analysis, apoptosis and histone H3 acetylation levels of #116 AML cells after 20 hrs is of the indicated treatments.
Human leukemia cell line U937 was propagated in RPMI medium supplemented with 10% FBS (Foetal bovine serum; Hyclone) and antibiotics (100 U/mL penicillin, 100 μg/mL streptomycin and 250 ng/mL amphotericin-B). Cells were kept at the constant concentration of 200000 cells per milliliter of culture medium. For AML samples, bone marrow containing 80% to 90% leukemic blasts was purified over Ficoll. This study was approved by the Ethical Committee of the Second University of Naples.

For data set [6], the target named is HDAC1 (Homo sapiens, UniProt Q13547). Nature of the data set: HDAC1 enzymatic assay (IP-HDAC1, 3H-acetyl release). It counts as biochemical. To be noted: IP-HDAC1 incubated with inhibitor 24 hrs. The procedure:
as §1

The target of data set [7] is T1, HDAC6 (Homo sapiens, UniProt Q9UBN7).
T1 construct: Tubuline acetylation and p21 expression levels in U937 cells after 24 hrs with the indicated treatments; endogenous in cells; host or cells: U937
T1 sequence (Q9UBN7 whole entry): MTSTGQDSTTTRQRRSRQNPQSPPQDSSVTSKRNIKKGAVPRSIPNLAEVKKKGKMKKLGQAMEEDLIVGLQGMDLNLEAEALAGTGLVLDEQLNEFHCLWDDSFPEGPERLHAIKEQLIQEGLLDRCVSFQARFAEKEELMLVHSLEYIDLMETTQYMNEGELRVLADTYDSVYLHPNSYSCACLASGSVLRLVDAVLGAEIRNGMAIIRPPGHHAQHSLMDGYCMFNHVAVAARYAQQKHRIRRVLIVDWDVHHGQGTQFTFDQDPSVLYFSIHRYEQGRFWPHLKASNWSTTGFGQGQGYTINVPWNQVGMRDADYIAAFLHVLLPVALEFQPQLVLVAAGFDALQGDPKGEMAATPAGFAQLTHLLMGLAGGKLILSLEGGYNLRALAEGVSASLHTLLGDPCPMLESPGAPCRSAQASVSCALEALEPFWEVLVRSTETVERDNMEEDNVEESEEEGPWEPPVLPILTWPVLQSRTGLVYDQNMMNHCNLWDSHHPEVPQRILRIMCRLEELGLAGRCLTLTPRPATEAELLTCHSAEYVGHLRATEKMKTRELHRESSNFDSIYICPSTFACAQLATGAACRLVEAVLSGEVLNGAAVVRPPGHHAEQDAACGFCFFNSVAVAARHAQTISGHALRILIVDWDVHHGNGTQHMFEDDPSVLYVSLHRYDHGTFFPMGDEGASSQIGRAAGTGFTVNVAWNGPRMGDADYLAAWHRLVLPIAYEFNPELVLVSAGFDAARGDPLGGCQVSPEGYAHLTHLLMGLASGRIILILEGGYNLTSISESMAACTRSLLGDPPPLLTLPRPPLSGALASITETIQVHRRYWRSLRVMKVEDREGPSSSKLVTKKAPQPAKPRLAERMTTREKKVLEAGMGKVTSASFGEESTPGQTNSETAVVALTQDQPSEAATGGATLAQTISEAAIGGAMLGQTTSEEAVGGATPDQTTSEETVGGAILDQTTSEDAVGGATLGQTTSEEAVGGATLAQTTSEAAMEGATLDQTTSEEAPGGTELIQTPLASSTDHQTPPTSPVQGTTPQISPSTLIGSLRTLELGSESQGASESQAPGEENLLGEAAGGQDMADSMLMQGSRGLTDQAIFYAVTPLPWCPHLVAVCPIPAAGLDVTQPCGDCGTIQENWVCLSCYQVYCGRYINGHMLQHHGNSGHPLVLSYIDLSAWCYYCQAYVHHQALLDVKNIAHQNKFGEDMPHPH
Nature of the data set: Alpha tubulin acetylation in U937 cells (HDAC6 readout). In kind it is cell-based. The settings on record: U937, 6 and 16 hrs. The procedure:
as §1, with “release. […]” for “release.”

For data set [8], the system named is cancer cell lines A-375, DU145 and HCT-116. In words: Dose response curves, anti-proliferative activity on cancer cell lines. It counts as cell-based. To be noted: range over A-375, DU145, HCT-116; read-out: IC50 values, anti-proliferative activity on different types of cancer cell lines. The procedure:
HCT-116, A-375 and DU-145 cells were plated at 8000 cells per well in 96-well transparent cell culture grade plates (Corning). Plates were kept in the humidified CO2 (5%) incubator overnight so that cells get attached to the bottom. […] Viable cells cleave the MTT tetrazolium ring into a dark blue formazan reaction product, whereas dead cells remain colorless. The MTT-containing medium was gently removed and DMSO was added in each well. After shaking, the plates were read in absorbance at 540 nm. All results are expressed as the average of three wells. Percent cytotoxicity was measured of each compound and represented in terms of its IC50 values.
Anti-proliferative activity on cancer cell lines A-375, DU145 and HCT-116: […]

For data set [9], the system named is prostate cancer cells (LnCap). In words: Anti-proliferative and apoptogenic action in prostate cancer cells. It counts as cell-based. The settings on record: data not shown.
The subject of data set [10] is DNA methyltransferase (DNMT). In words: DNMT enzymatic in vitro assay. To be noted: 1.5 and 50 μM. It counts as biochemical. The procedure: FIG. 2: a) Methylation specific PCR for the RARβ gene after 16 and 24 hrs of treatment with the indicated compounds; b) Methylation specific PCR for the p16 gene after 24 hrs of the indicated treatments. Samples are representative of real duplicates; c) p16 expression levels in U937 cells after 24 hrs with the indicated treatments; d) DNMT enzymatic in vitro assay carried out with 1.5 and 50 μM of the indicated compounds;

Where two headings read alike, the source gives them in different places.

Chain of human recombinant SIRT1 (Q96EB6 whole entry): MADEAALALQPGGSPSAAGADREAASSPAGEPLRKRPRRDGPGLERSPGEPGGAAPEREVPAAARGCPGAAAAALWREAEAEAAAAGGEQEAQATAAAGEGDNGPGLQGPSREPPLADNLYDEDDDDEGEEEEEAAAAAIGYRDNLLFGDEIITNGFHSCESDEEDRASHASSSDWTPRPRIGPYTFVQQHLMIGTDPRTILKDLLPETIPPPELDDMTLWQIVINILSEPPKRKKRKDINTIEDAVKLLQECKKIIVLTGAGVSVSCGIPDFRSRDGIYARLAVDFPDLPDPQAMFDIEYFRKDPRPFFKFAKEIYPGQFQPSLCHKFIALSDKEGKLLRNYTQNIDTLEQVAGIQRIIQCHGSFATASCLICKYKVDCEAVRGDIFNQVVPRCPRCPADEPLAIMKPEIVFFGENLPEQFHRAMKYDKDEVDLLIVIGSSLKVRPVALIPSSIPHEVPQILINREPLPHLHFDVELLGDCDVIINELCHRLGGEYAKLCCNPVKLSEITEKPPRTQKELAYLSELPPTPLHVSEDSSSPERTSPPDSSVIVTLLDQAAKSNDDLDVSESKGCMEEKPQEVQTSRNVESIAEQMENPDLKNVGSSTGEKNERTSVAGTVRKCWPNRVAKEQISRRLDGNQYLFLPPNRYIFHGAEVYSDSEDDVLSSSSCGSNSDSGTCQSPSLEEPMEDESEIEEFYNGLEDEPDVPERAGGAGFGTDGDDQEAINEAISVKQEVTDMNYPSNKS
Chain of HDAC1 (Q13547 whole entry, species assumed): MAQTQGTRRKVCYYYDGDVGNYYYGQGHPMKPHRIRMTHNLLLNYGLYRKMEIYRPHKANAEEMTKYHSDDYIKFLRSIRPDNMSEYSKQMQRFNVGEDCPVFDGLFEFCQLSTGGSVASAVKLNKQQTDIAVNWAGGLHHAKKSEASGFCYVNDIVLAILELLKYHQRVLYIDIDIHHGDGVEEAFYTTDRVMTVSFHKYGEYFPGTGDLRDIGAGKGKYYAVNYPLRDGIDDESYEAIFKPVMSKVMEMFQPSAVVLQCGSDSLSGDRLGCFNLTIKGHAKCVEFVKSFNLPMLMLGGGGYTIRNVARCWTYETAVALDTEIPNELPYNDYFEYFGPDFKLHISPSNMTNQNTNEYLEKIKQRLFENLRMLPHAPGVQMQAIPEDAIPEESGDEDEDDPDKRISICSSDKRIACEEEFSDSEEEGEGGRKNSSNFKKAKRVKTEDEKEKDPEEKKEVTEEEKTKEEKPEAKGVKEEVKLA

Regarding `O=C(NCCSSCCNC(=O)C(Cc1c[nH]c2ccc(Br)cc12)=NO)C(Cc1c[nH]c2ccc(Br)cc12)=NO` [UVI5008], the “Percent Growth Inhibition after 22 days” value in data set [1] (40 mg/kg i.p. every second day) was found to be 56 ± 7%. Besides, the “animals with signs of toxicity (accumulation of intra peritoneal fluid)” value in [1] (40 mg/kg i.p. every second day) was 3 animals out of 10. The Normalised tumour weight turned out to be 100 ± 21.5 mg in [1] (day 1, 40 mg/kg i.p. every second day); 180.55 ± 43 mg in data set [1] (day 4, 40 mg/kg i.p. every second day); 548.73 ± 109.8 mg in data set [1] (day 12, 40 mg/kg i.p. every second day); 915.28 ± 196.8 mg in [1] (day 17, 40 mg/kg i.p. every second day); 1684.79 ± 262.1 mg in data set [1] (day 22, 40 mg/kg i.p. every second day). Further, the “anti tumoral activity compared with the reference compounds” value in data set [1] (each compound at its MTD) was “greater anti tumoral activity with respect to SAHA and MS-275”. Also, the results for the IC50 in [2] and in [8] were 8.9 µM and 1.5 to 3 µM, respectively. The “anti-proliferative and apoptogenic action” value in data set [3] and in data set [9] was “confirmed” each time. Also, the “H3K9, H3K14 and H3K18 acetylations” value in [4] was “all increased”. The “global histone H3 acetylation” value in data set [4] is “dramatically enhanced”. Besides, the “methylation of H3K9” value in data set [4] is given as “decreased”. In data set [5] (5 μM, two samples of patient blasts), the apoptotic activity entry was “showed an apoptotic activity”. The “cell cycle arrest and apoptosis (caspase 3 activation)” value in data set [5] (4 ex vivo cultures, AML patients #102, #108, #109, #116) was “induced cell cycle arrest and apoptosis”. Further, the HDAC1 inhibition result in [6] is on record as “blocks HDAC1 activity nearly quantitatively”. Further, the “inhibition of HDAC6 (alpha tubulin acetylation)” value in [7] was “inhibited the activity of HDAC6”. Further, the DNMT inhibition entry in data set [10] is reported as “nearly as active as RG108 albeit at higher concentrations”.

These data come from patent US8338473B2, “Derivatives of psammaplin A, a method for their synthesis and their uses for the prevention or treatment of cancer” (Centre National de la Recherche Scientifique, priority 2007, dated 2012).
